The source of these data is the NIST ThermoML archive (doi:10.1021/je200853g).

± gives the expanded uncertainty stated by the source.

For data set [1] the following is noted: Crystal; DTA.
Data set [2] is described as follows: Molar enthalpy of transition or fusion. To be noted: Crystal; DSC.

For `Cc1ncc(CO)c(CO)c1O` [5-hydroxy-6-methyl-3,4-pyridinedimethanol], in data set [1], the Triple point temperature stood at 433.18 ± 0.5 K. For the same compound, the “Molar enthalpy of transition or fusion” value in data set [2] is 7.45 ± 0.217 kcal/mol.
